Assay results taken from US20230091047A1 (priority 2019, published 2023).
Like-named read-outs stand apart in the source and are kept apart here.

Key:
[1] = tested on: HBV (HepG2.117 cell line, inducibly HBV producing); experiment: Anti-HBV activity: intracellular HBV DNA by real-time PCR in HepG2.117 cells after 3 days of treatment; assay type: cell-based, hepatitis B virus
Summary of the method: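 First, HBV replication is induced in HepG2.117 cells by doxycycline absence. Next, serially diluted compound is added for 3 days. Finally, intracellular HBV DNA is quantified by HBV-specific real-time PCR.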

HepG2 cells = experiment: in vitro; assay type: cell-based
Summary of the method: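 Luminescent ATP quantitation served as the viability endpoint following a 3- or 4-day incubation with test compounds.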

[2] = HepG2.117 cells, 3 days of treatment, intracellular HBV DNA by real-time PCR; mean value; read-out: EC50 (μM, mean value)
[3] = 3-days incubation (unmarked values), HepG2 or HepG2.117 cells, ATPlite, mean value, read-out: CC50 (μM, mean value)
[4] = HepG2.117 cells, intracellular HBV DNA by real-time PCR, 3 days of treatment, mean value; read-out: EC50 (μM, mean value)
[5] = HepG2 or HepG2.117 cells, ATPlite, 3-days incubation (not marked with *), mean value, read-out: CC50 (μM, mean value)

Structure (SMILES): CC(C)Nc1nc2c(c(=O)n1-c1ccc(S(C)(=O)=O)cc1)C[C@@H](C)N(C(=O)c1ccc(Cl)c(Cl)c1)C2 [Compound C142, (6R)-7-(3,4-dichlorobenzoyl)-3-[4-(methanesulfonyl)phenyl]-6-methyl-2-[(propan-2-yl)amino]-5,6,7,8-tetrahydropyrido[3,4-d]pyrimidin-4(3H)-one]
- EC50 [1, 2]: 0.12 µM
- CC50 (HepG2 cells; [3]): > 50 µM

Structure (SMILES): CNC(=O)c1ccc(-n2c(NC(C)C)nc3c(c2=O)C[C@@H](C)N(C(=O)c2ccc(Cl)c(Cl)c2)C3)c(C)c1 [Compound C300b, 4-[(6R)-7-(3,4-dichlorobenzoyl)-6-methyl-4-oxo-2-[(propan-2-yl)amino]-5,6,7,8-tetrahydropyrido[3,4-d]pyrimidin-3(4H)-yl]-N,3-dimethylbenzamide]
- EC50 [1, 2]: 0.09 µM
- CC50 (HepG2 cells; [3]): > 50 µM

Structure (SMILES): CNC(=O)c1ccc(-n2c(N[C@@H](C)c3ccccc3)nc3c(c2=O)C[C@@H](C)N(C(=O)c2ccc(Cl)c(Cl)c2)C3)c(Cl)c1 [Compound C386]
- EC50 [1, 4]: 0.12 µM
- CC50 (HepG2 cells; [5]): > 50 µM

Structure (SMILES): CNC(=O)c1ccc(-n2c(N[C@@H](C)C3CC3)nc3c(c2=O)C[C@@H](C)N(C(=O)c2ccc(Cl)c(Cl)c2)C3)c(Cl)c1 [Compound C387]
- EC50 [1, 4]: 0.06 µM
- CC50 (HepG2 cells; [5]): 38 µM

Structure (SMILES): CC(C)Nc1nc2c(c(=O)n1-c1ccc(-c3ncc[nH]3)cc1Cl)C[C@@H](C)N(C(=O)c1ccc(Cl)c(Cl)c1)C2 [Compound C393]
- EC50 ([1]; Hepatitis B virus, HepG2.117, 72 h, HepG2.117 cells, intracellular HBV DNA by real-time PCR, 3 days of treatment, mean value; read-out: EC50 (μM, mean value)): 0.17 µM
- CC50 (HepG2 cells; [5]): 24.1 µM

Structure (SMILES): CNC(=O)c1ccc(-n2c(OC(C)C)nc3c(c2=O)C[C@@H](C)N(C(=O)c2ccc(Cl)c(Cl)c2)C3)c(Cl)c1 [Compound C403b]
- EC50 [1, 4]: 0.08 µM
- CC50 (HepG2 cells; [5]): 31.1 µM

Structure (SMILES): CNC(=O)c1ccc(-n2c(N[C@H](C)c3ccc(OC(F)F)cc3)nc3c(c2=O)C[C@@H](C)N(C(=O)c2ccc(Cl)c(Cl)c2)C3)cc1 [Compound C411b]
- EC50 [1, 4]: 0.07 µM
- CC50 (HepG2 cells; [5]): 42.1 µM

Structure (SMILES): CNC(=O)c1ccc(-n2c(N[C@H]3C[C@@H]3c3ccc(OC)cc3)nc3c(c2=O)C[C@@H](C)N(C(=O)c2ccc(Cl)c(Cl)c2)C3)cc1 [Compound C452b]
- EC50 [1, 4]: > 10 µM
- CC50 (HepG2 cells; [5]): > 50 µM

Structure (SMILES): CNC(=O)c1ccc(-n2c(NCc3nc(-c4ccccc4)n[nH]3)nc3c(c2=O)C[C@@H](C)N(C(=O)c2ccc(Cl)c(Cl)c2)C3)cc1 [Compound C538]
- EC50 [1, 4]: 20.6 µM
- CC50 (HepG2 cells; [5]): > 50 µM

Structure (SMILES): CNC(=O)c1cnc(-n2c(N[C@@H](C)c3ccc(OC(F)(F)F)cc3)nc3c(c2=O)C[C@@H](C)N(C(=O)c2ccc(Cl)c(Cl)c2)C3)cn1 [Compound C617]
- EC50 [1, 4]: 0.08 µM
- CC50 (HepG2 cells; [5]): > 50 µM

Structure (SMILES): CNC(=O)[C@H]1CC[C@@H](n2c(N[C@H](C)c3ccc(OC(F)(F)F)cc3)nc3c(c2=O)C[C@@H](C)N(C(=O)c2ccc(Cl)c(Cl)c2)C3)CC1 [Compound C636, (1R,4s)-4-((R)-7-(3,4-dichlorobenzoyl)-6-methyl-4-oxo-2-(((S)-1-(4-(trifluoromethoxy)phenyl)ethyl)amino)-5,6,7,8-tetrahydropyrido[3,4-d]pyrimidin-3(4H)-yl)-N-methylcyclohexane-1-carboxamide]
- EC50 [1, 4]: 0.23 µM
- CC50 (HepG2 cells): > 35 µM
